Laboratory results reported in ChEMBL document CHEMBL4507302, “Data for DCP probe TP-020” (2021).
Active and inactive are the calls of the source. No cut-off for these calls is given here.

Assays:
[1] = target: Muscle, skeletal receptor tyrosine-protein kinase (Homo sapiens) (UniProt O15146); settings: Compound concentration 1000.0 nM
[2] = test system: Tyrosine-protein kinase ABL1 (Homo sapiens), P00519 [F317L]; settings: Compound concentration 1000.0 nM
[3] = target: Alpha-2C adrenergic receptor (Homo sapiens) (UniProt P18825); settings: Compound concentration 10.0 uM
[4] = target: 5-hydroxytryptamine receptor 6 (Homo sapiens) (UniProt P50406); settings: Compound concentration 10.0 uM
[5] = test system: Epidermal growth factor receptor (Homo sapiens), P00533 [UNDEFINED MUTATION]; settings: Compound concentration 1000.0 nM
[6] = target: Diacylglycerol O-acyltransferase 1 (Homo sapiens, UniProt O75907); assay: Thin Layer Chromatography (TLC) assay (human DGAT1)
[7] = target: Rhodopsin kinase GRK1 (Homo sapiens) (UniProt Q15835); settings: Compound concentration 1000.0 nM
[8] = target: 5-hydroxytryptamine receptor 1D (Homo sapiens, UniProt P28221); assay: GPCRScan assay: inhibition of 5-HT1D; set-up: radioligand conc. used [nm] 1.0 – 2.0, parental cells HEKT
[9] = target: G protein-coupled receptor kinase 4 (Homo sapiens) (UniProt P32298); settings: Compound concentration 1000.0 nM
[10] = target: Alpha-2A adrenergic receptor (Homo sapiens) (UniProt P08913); settings: Compound concentration 10.0 uM
[11] = target: Ephrin type-A receptor 7 (Homo sapiens) (UniProt Q15375); settings: Compound concentration 1000.0 nM
[12] = target: Sigma non-opioid intracellular receptor 1 (Homo sapiens) (UniProt Q99720); settings: Compound concentration 10.0 uM
[13] = target: Sigma intracellular receptor 2 (Homo sapiens, UniProt Q5BJF2); assay: GPCRScan assay: inhibition of Sigma 2; set-up: radioligand conc. used [nm] 5.0, parental cells HEKT
[14] = target: Muscarinic acetylcholine receptor M3 (Homo sapiens) (UniProt P20309); settings: Compound concentration 10.0 uM
[15] = target: Mogat2 (Mus musculus); assay: RapidFire/MS assay (mouse MGAT2)
[16] = target: 5-hydroxytryptamine receptor 2C (Homo sapiens) (UniProt P28335); settings: Compound concentration 10.0 uM
[17] = target: Diacylglycerol O-acyltransferase 2 (Homo sapiens, UniProt Q96PD7); assay: Thin Layer Chromatography (TLC) assay (human DGAT2)
[18] = target: Diacylglycerol O-acyltransferase 2-like protein MOGAT2 (Homo sapiens) (UniProt Q3SYC2); assay: RapidFire/MS assay (human MGAT2)
[19] = target: Serine/threonine-protein kinase 25 (Homo sapiens) (UniProt O00506); settings: Compound concentration 1000.0 nM
[20] = target: Alpha-1A adrenergic receptor (Homo sapiens) (UniProt P35348); settings: Compound concentration 10.0 uM
[21] = target: Beta-1 adrenergic receptor (Homo sapiens) (UniProt P08588); settings: Compound concentration 10.0 uM
[22] = target: Muscarinic acetylcholine receptor M1 (Homo sapiens) (UniProt P11229); settings: Compound concentration 10.0 uM
[23] = target: 5-hydroxytryptamine receptor 1A (Homo sapiens) (UniProt P08908); settings: Compound concentration 10.0 uM
[24] = target: Muscarinic acetylcholine receptor M2 (Homo sapiens) (UniProt P08172); settings: Compound concentration 10.0 uM
[25] = target: Beta-3 adrenergic receptor (Homo sapiens) (UniProt P13945); settings: Compound concentration 10.0 uM

Chain of Tyrosine-protein kinase ABL1 (Homo sapiens), P00519 [F317L] (P00519 whole entry F317L): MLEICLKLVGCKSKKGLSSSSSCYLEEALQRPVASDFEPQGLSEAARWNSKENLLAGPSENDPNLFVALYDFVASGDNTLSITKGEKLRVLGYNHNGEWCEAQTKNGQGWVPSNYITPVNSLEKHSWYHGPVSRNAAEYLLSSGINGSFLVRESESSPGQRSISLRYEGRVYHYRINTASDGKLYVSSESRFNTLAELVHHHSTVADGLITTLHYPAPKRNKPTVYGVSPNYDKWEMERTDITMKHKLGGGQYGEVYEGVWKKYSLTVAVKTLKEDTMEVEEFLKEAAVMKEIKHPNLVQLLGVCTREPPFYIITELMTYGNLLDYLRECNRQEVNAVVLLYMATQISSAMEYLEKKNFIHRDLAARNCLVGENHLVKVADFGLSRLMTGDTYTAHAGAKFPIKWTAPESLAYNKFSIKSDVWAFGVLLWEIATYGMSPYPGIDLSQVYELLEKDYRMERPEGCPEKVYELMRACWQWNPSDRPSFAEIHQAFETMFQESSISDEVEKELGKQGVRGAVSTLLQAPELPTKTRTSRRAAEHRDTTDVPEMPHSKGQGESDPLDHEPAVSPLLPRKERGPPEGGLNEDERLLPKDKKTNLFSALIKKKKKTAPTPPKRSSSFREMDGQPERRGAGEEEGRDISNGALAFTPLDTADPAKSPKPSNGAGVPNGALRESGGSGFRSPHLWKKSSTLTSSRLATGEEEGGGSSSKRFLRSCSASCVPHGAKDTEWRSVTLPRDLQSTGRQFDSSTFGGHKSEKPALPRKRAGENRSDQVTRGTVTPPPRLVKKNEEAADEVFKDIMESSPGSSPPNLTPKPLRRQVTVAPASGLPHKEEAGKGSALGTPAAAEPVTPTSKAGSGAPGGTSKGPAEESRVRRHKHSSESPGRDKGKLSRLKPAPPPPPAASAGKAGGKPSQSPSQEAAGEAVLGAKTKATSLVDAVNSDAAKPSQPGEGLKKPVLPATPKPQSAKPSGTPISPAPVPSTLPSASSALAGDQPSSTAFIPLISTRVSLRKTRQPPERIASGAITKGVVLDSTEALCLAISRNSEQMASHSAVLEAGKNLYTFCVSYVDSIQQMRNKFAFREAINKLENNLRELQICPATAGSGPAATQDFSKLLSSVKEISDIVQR
Chain of Serine/threonine-protein kinase 25 (Homo sapiens) (O00506 whole entry, looked up): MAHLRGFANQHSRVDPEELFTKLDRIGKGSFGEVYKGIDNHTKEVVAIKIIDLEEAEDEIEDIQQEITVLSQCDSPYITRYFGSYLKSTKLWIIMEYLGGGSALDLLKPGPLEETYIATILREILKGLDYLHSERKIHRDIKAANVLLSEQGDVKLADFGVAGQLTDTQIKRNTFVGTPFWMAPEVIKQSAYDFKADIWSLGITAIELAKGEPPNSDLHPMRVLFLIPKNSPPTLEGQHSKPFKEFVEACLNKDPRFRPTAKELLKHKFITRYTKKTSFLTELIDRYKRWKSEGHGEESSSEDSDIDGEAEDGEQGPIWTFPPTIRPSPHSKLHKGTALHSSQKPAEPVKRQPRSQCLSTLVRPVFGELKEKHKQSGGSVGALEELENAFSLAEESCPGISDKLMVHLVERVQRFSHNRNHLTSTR
Chain of Muscle, skeletal receptor tyrosine-protein kinase (Homo sapiens) (O15146 whole entry): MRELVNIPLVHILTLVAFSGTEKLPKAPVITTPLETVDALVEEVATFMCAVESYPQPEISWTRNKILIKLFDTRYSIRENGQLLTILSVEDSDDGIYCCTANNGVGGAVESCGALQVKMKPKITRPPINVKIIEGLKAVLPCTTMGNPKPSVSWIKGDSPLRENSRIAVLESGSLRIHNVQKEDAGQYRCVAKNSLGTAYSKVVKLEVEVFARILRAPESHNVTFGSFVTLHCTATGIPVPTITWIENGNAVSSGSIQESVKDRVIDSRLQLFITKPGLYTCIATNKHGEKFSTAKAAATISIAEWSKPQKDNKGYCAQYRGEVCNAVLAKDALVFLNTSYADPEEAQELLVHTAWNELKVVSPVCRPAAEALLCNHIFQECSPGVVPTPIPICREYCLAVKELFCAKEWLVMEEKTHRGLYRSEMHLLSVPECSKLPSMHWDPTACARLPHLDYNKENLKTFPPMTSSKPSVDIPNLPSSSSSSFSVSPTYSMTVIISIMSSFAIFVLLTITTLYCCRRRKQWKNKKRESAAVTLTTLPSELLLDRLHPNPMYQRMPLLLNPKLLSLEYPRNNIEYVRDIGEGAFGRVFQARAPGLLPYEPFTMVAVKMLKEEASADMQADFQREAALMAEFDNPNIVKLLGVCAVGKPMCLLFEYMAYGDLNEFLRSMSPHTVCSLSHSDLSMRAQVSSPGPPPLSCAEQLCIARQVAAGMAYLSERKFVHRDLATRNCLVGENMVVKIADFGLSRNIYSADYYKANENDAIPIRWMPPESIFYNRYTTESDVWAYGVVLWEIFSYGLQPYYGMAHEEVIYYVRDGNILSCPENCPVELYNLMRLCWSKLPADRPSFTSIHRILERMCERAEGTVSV
Chain of Epidermal growth factor receptor (Homo sapiens), P00533 [UNDEFINED MUTATION] (P00533 whole entry, looked up, change not shown): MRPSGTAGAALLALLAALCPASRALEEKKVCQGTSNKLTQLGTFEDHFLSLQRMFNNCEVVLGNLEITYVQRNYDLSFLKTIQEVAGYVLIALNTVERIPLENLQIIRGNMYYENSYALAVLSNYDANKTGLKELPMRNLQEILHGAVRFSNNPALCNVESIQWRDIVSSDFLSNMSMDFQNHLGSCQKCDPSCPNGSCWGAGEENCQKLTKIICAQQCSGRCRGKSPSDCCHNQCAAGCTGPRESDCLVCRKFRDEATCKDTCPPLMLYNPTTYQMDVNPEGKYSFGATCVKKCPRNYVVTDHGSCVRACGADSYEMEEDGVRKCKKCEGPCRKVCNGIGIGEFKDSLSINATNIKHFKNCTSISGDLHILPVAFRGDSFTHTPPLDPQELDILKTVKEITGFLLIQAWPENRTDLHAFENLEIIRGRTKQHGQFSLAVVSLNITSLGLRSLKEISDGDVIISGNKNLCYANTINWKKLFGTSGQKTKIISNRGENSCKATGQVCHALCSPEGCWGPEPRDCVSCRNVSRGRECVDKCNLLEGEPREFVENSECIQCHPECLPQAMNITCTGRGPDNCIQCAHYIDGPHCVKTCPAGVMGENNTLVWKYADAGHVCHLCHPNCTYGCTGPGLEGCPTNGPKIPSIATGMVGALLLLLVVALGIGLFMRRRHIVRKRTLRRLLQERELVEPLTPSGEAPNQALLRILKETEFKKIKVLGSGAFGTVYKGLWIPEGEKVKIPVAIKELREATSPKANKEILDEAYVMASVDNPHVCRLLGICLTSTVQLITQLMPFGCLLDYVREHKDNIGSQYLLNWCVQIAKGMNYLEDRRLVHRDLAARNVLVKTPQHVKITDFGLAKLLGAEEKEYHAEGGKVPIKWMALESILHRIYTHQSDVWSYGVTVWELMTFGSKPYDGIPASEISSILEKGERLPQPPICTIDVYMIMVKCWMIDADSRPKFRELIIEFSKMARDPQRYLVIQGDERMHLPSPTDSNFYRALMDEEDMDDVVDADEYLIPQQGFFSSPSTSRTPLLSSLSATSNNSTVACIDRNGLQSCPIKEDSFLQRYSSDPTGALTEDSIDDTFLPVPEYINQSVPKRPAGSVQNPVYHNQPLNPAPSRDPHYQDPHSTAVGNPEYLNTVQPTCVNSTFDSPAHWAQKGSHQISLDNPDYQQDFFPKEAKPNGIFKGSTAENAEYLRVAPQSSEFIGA
Chain of G protein-coupled receptor kinase 4 (Homo sapiens) (P32298 whole entry, looked up): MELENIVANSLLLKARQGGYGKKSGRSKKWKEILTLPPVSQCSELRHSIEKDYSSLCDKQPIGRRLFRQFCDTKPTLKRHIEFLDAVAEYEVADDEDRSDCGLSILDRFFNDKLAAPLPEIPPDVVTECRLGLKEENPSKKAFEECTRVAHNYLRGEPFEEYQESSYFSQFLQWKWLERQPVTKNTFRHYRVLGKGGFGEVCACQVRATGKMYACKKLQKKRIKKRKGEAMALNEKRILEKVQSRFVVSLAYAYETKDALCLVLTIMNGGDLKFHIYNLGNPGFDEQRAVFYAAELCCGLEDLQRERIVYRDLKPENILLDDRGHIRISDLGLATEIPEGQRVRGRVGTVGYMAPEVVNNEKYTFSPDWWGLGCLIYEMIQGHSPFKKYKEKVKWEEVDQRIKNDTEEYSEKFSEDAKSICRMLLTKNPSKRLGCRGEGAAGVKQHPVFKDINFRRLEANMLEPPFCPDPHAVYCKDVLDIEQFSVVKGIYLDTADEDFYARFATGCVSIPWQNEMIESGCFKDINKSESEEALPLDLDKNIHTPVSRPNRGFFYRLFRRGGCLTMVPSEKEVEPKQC
Chain of Rhodopsin kinase GRK1 (Homo sapiens) (Q15835 whole entry): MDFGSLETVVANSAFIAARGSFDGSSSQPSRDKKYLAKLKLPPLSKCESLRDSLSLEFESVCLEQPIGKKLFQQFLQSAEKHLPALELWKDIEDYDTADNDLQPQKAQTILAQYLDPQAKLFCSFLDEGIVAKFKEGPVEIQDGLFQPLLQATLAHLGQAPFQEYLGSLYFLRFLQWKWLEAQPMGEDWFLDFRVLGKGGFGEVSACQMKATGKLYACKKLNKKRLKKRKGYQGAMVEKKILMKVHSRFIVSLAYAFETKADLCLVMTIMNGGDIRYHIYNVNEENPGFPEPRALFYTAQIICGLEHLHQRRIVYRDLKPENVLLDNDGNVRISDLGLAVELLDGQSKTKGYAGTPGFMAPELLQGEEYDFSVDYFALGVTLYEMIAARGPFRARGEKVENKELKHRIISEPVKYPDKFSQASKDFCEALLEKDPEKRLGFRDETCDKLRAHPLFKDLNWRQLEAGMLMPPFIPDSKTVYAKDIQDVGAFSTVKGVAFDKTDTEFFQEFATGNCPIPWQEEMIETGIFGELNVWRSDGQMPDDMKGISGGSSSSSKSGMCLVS
Chain of Sigma non-opioid intracellular receptor 1 (Homo sapiens) (Q99720 whole entry): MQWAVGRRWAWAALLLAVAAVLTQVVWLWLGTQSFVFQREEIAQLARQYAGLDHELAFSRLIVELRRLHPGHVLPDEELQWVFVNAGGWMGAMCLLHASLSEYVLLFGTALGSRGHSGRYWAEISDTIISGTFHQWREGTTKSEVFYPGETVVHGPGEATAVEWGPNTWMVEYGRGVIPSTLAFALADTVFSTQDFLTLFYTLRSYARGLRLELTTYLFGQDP

## Cn1nc(C(F)(F)F)cc1-c1cnc(N2CCc3cc(S(=O)(=O)Nc4c(F)cc(Cl)cc4F)cc(N4CCCC4=O)c32)nc1 [TP-020]
[1]
  residual activity: 87%
[2]
  residual activity: 94%
[3]
  inhibition: 17.9%
[4]
  inhibition: 6.67%
[5]
  residual activity: 100%
[6]
  IC50: > 30 µM (not active)
[7]
  residual activity: 95%
[8]; read-out: Ki
  Ki: 4.66 µM
[8]; read-out: pKi (converted)
  Ki: 4.57 µM
[9]
  residual activity: 100%
[10]
  inhibition: -9.1%
[11]
  residual activity: 78%
[12]
  inhibition: 12.8%
[13]
  Ki: 10 µM
[14]
  inhibition: 7.26%
[15]
  IC50: 0.0024 µM (active)
[16]
  inhibition: 31%
[17]
  IC50: > 30 µM (not active)
[18]
  IC50: 0.0078 µM (active)
[19]
  residual activity: 100%
[20]
  inhibition: 6.96%

## Nc1cnc(N2CCc3cc(S(=O)(=O)Nc4c(F)cc(Cl)cc4F)cc(N4CCCC4=O)c32)nc1
[1]
  residual activity: 100%
[2]
  residual activity: 78%
[21]
  inhibition: 8.84%
[5]
  residual activity: 100%
[22]
  inhibition: -9.48%
[23]
  inhibition: 4.45%
[7]
  residual activity: 100%
[9]
  residual activity: 100%
[11]
  residual activity: 85%
[24]
  inhibition: 3.7%
[19]
  residual activity: 88%
[25]
  inhibition: -2.69%
